{"source": "patent US9493466B2", "about": "“Treatment of cancer with TOR kinase inhibitors” (Signal Pharmaceuticals, LLC, priority 2011, dated 2016)", "test_in_all_cases": "Apoptosis assay for NHL lines (Caspase 3/7-Glo)", "assay_type_in_all_cases": "cell-based", "key": {"[1]": {"system": "DB", "details": "NHL DLBCL, 24 hours, n = 1", "protocol": "(§1) Apoptosis Assay for NHL Lines. Prior to testing, cells were grown and expanded in culture flasks to provide sufficient amounts of starting material. Cells were then diluted to their desired densities and added directly to compound-spotted 384-well plates. Cells were allowed to grow for 24 hours in 5% CO2 at 37° C. The apoptotic response was assessed by quantifying the activities of caspase 3 and caspase 7 (Caspase 3/7-Glo) in treated cells and control cells at the 24-hour time point. All data was normalized and represented as a value relative to the DMSO-treated cells. Results were then expressed as CalX, which is the minimum compound concentration required to double the levels of caspase 3/7 relative to those of the DMSO-treated cells during their treatment period."}, "[2]": {"system": "DOHH-2", "details": "DOHH-2, NHL FL, 24 hours, n = 1", "protocol": "as §1"}, "[3]": {"system": "Farage", "details": "NHL DLBCL, 24 hours, n = 1", "protocol": "as §1"}, "[4]": {"system": "Granta-519", "details": "Granta-519, NHL MCL, 24 hours, n = 1", "protocol": "as §1"}, "[5]": {"system": "HT", "details": "NHL DLBCL, 24 hours, n = 1", "protocol": "as §1"}, "[6]": {"system": "JEKO-1", "details": "JEKO-1, NHL MCL, 24 hours, n = 1", "protocol": "as §1"}, "[7]": {"system": "JVM-13", "details": "JVM-13, NHL MCL, 24 hours, n = 1", "protocol": "as §1"}, "[8]": {"system": "JVM-2", "details": "JVM-2, NHL MCL, 24 hours, n = 1", "protocol": "as §1"}, "[9]": {"system": "KARPAS-299", "details": "KARPAS-299, ALCL T-cell, 24 hours, n = 1", "protocol": "as §1"}, "[10]": {"system": "KARPAS-422", "details": "KARPAS-422, NHL DLBCL, 24 hours, n = 1", "protocol": "as §1"}, "[11]": {"system": "KASUMI-1", "details": "KASUMI-1, Leukemia M-AML, 24 hours, n = 1", "protocol": "as §1"}, "[12]": {"system": "KG-1", "details": "KG-1, Leukemia M-AML, 24 hours, n = 1", "protocol": "as §1"}, "[13]": {"system": "MOLM-13", "details": "MOLM-13, Leukemia M-AML, 24 hours, n = 1", "protocol": "as §1"}, "[14]": {"system": "Mino", "details": "NHL MCL, 24 hours, n = 1", "protocol": "as §1"}, "[15]": {"system": "NU-DHL-1", "details": "NU-DHL-1, NHL DLBCL, 24 hours, n = 1", "protocol": "as §1"}, "[16]": {"system": "OCI-LY-19", "details": "OCI-LY-19, NHL DLBCL, 24 hours, n = 1", "protocol": "as §1"}, "[17]": {"system": "OCI-LY-3", "details": "OCI-LY-3, NHL DLBCL, 24 hours, n = 1", "protocol": "as §1"}, "[18]": {"system": "Pfeiffer", "details": "NHL DLBCL, 24 hours, n = 1", "protocol": "as §1"}, "[19]": {"system": "RC-K8", "details": "RC-K8, NHL DLBCL, 24 hours, n = 1", "protocol": "as §1"}, "[20]": {"system": "RIVA", "details": "NHL DLBCL, 24 hours, n = 1", "protocol": "as §1"}, "[21]": {"system": "SC-1", "details": "SC-1, NHL FL, 24 hours, n = 1", "protocol": "as §1"}, "[22]": {"system": "SU-DHL-16", "details": "SU-DHL-16, NHL DLBCL, 24 hours, n = 1", "protocol": "as §1"}, "[23]": {"system": "SU-DHL-1", "details": "SU-DHL-1, ALCL T-cell, 24 hours, n = 1", "protocol": "as §1"}, "[24]": {"system": "SU-DHL-5", "details": "SU-DHL-5, NHL DLBCL, 24 hours, n = 1", "protocol": "as §1"}, "[25]": {"system": "SU-DHL-6", "details": "SU-DHL-6, NHL DLBCL, 24 hours, n = 1", "protocol": "as §1"}, "[26]": {"system": "SU-DHL-8", "details": "SU-DHL-8, NHL DLBCL, 24 hours, n = 1", "protocol": "as §1"}, "[27]": {"system": "THP-1", "details": "THP-1, Leukemia M-AML, 24 hours, n = 1", "protocol": "as §1"}, "[28]": {"system": "U-2932", "details": "U-2932, NHL DLBCL, 24 hours, n = 1", "protocol": "as §1"}, "[29]": {"system": "U-2940", "details": "U-2940, NHL DLBCL, 24 hours, n = 1", "protocol": "as §1"}}}
{"smiles": "CO[C@H]1CC[C@H](N2C(=O)CNc3ncc(-c4ccc(C(C)(C)O)nc4)nc32)CC1", "note": "[Compound 1, 7-(6-(2-hydroxypropan-2-yl)pyridin-3-yl)-1-((1r,4r)-4-methoxycyclohexyl)-3,4-dihydropyrazino-[2,3-b]pyrazin-2(1H)-one]", "values": [{"measurement": "Apoptotic", "setting": "[1]", "value": "N/Y"}, {"measurement": "CalX (minimum concentration to double caspase 3/7)", "setting": "[1]", "value": 5.44}, {"measurement": "CalX (minimum concentration to double caspase 3/7)", "setting": "[2]", "value": 0.14}, {"measurement": "CalX (minimum concentration to double caspase 3/7)", "setting": "[3]", "value": 0.47}, {"measurement": "CalX (minimum concentration to double caspase 3/7)", "setting": "[4]", "value": 10}, {"measurement": "Apoptotic", "setting": "[5]", "value": "N/Y"}, {"measurement": "CalX (minimum concentration to double caspase 3/7)", "setting": "[5]", "value": 5.62}, {"measurement": "CalX (minimum concentration to double caspase 3/7)", "setting": "[6]", "value": 0.56}, {"measurement": "Apoptotic", "setting": "[7]", "value": "N/Y"}, {"measurement": "CalX (minimum concentration to double caspase 3/7)", "setting": "[7]", "value": 4.27}, {"measurement": "Apoptotic", "setting": "[8]", "value": "N/Y"}, {"measurement": "CalX (minimum concentration to double caspase 3/7)", "setting": "[8]", "value": 3.2}, {"measurement": "Apoptotic", "setting": "[9]", "value": "N/Y"}, {"measurement": "CalX (minimum concentration to double caspase 3/7)", "setting": "[9]", "value": 9.61}, {"measurement": "Apoptotic", "setting": "[10]", "value": "N/Y"}, {"measurement": "CalX (minimum concentration to double caspase 3/7)", "setting": "[10]", "value": 5.16}, {"measurement": "Apoptotic", "setting": "[11]", "value": "N/Y"}, {"measurement": "CalX (minimum concentration to double caspase 3/7)", "setting": "[11]", "value": 6.52}, {"measurement": "CalX (minimum concentration to double caspase 3/7)", "setting": "[12]", "value": 10}, {"measurement": "Apoptotic", "setting": "[13]", "value": "N/Y"}, {"measurement": "CalX (minimum concentration to double caspase 3/7)", "setting": "[13]", "value": 7.24}, {"measurement": "CalX (minimum concentration to double caspase 3/7)", "setting": "[14]", "value": 0.53}, {"measurement": "CalX (minimum concentration to double caspase 3/7)", "setting": "[15]", "value": 0.41}, {"measurement": "CalX (minimum concentration to double caspase 3/7)", "setting": "[16]", "value": 1.13}, {"measurement": "CalX (minimum concentration to double caspase 3/7)", "setting": "[17]", "value": 0.67}, {"measurement": "CalX (minimum concentration to double caspase 3/7)", "setting": "[18]", "value": 10}, {"measurement": "Apoptotic", "setting": "[19]", "value": "N/Y"}, {"measurement": "CalX (minimum concentration to double caspase 3/7)", "setting": "[19]", "value": 6.51}, {"measurement": "Apoptotic", "setting": "[20]", "value": "N/Y"}, {"measurement": "CalX (minimum concentration to double caspase 3/7)", "setting": "[20]", "value": 3.84}, {"measurement": "CalX (minimum concentration to double caspase 3/7)", "setting": "[21]", "value": 10}, {"measurement": "CalX (minimum concentration to double caspase 3/7)", "setting": "[22]", "value": 0.11}, {"measurement": "CalX (minimum concentration to double caspase 3/7)", "setting": "[23]", "value": 10}, {"measurement": "CalX (minimum concentration to double caspase 3/7)", "setting": "[24]", "value": 0.59}, {"measurement": "CalX (minimum concentration to double caspase 3/7)", "setting": "[25]", "value": 10}, {"measurement": "CalX (minimum concentration to double caspase 3/7)", "setting": "[26]", "value": 0.07}, {"measurement": "Apoptotic", "setting": "[27]", "value": "N/Y"}, {"measurement": "CalX (minimum concentration to double caspase 3/7)", "setting": "[27]", "value": 7.57}, {"measurement": "CalX (minimum concentration to double caspase 3/7)", "setting": "[28]", "value": 2.04}, {"measurement": "CalX (minimum concentration to double caspase 3/7)", "setting": "[29]", "value": 0.43}]}
